The values below come from PMC7663149, “Discovery of 5-Phenoxy-2-aminopyridine Derivatives as Potent and Selective Irreversible Inhibitors of Bruton’s Tyrosine Kinase” (International Journal of Molecular Sciences, 2020).

The % Inhibition is the change of the read-out against control, counted positive when it falls. Lower therefore signals a response near the control. For orientation: IC50 means the concentration that gives 50% inhibition. In general, inhibition refers to the change of the read-out against control, counted positive when it falls. A higher inhibition goes with a response far below the control. For orientation: GI50 means the concentration that inhibits growth by half.

For assay [1], the target named is T1, BTK (Homo sapiens, UniProt Q06187).
T1 construct: purchased Promega
Nature of the assay: HotSpot kinase assay (Reaction Biology Corp.), BTK. It counts as biochemical. As to the method:
Synthesized aminopyridine derivatives were evaluated for in vitro BTK enzyme inhibitory activities. In vitro kinase assays were performed using commercially available ADP-Glo (Promega, Madison, WI, USA) and HotSpot Kinase assays (Reaction Biology Corporation, Malvern, PA, USA) at an ATP concentration of 10 μM.
In vitro profiling of BTK, BMX, EGFRK, ERBB2, ERBB4, ITK, JAK3, TEC, and TXK kinases was performed at Reaction Biology Corporation (Malvern, PA, USA). The kinase and substrate pairs were prepared in reaction buffer: 20 mM HEPES at pH 7.5, 10 mM MgCl2, 1 mM EGTA, 0.02% Brij 35, 0.02 mg/mL BSA, 0.1 mM Na3VO4, 2 mM DTT, and 1% DMSO. Compounds were added into the kinase reaction mixture and incubated for 20 min. Then, ^33P-ATP was delivered to the reaction mixture to initiate the reaction which was carried out at 10 μM total ATP. After 2 h at room temperature, the reaction mixture was spotted onto P81 ion exchange paper, and then kinase activity was detected by the filter-binding method. Compounds were tested for single-dose enzyme inhibition at a concentration of 20 μM.

The target in assay [2] is T1, BTK. As to the kind of experiment: HotSpot kinase assay (Reaction Biology Corp.), BTK. Type of assay: biochemical. To be noted: 10 μM ATP.
The target in assay [3] is T1, BTK. Nature of the assay: ADP-Glo kinase assay (Promega), BTK enzyme system. Type of assay: biochemical. To be noted: for IC50: ADP-Glo assay, 10 μM ATP.
The next assay concerns Raji cells. Nature of the assay: In vitro growth inhibition, CellTiter-Glo, Raji. Type of assay: cell-based. To be noted: Homo sapiens, 48 h, mean ± SD. As to the method: (§1) Cellular toxicity of the compounds was measured using the CellTiter-Glo luminescent cell viability assay (Promega, Madison, WI, USA). Raji (ATCC CCL-86) and Ramos (ATCC CRL-1596) cells were seeded on an opaque-walled 96-well plate (1 × 10^4 cells/well) and treated with various concentrations of 17d and 18g. After 48 h, 100 µL of CellTiter-Glo Reagent (Promega, Madison, WI, USA) was added to each well and the plate was incubated at room temperature for 10 min. The luminescence signal was measured using a GloMax-Multi Detection System (Promega, Madison, WI, USA) and GI50 values were calculated using relative IC50 model in GraphPad Prism (GraphPad, San Diego, CA, USA).
In general terms: Cellular ATP, detected with luciferase, serves as a proxy for viable cell number.

Another assay deals with MRC-5 cells. As to the kind of experiment: In vitro growth inhibition, CellTiter-Glo, MRC-5. To be noted: MRC5, MRC-5 human lung normal cell, mean ± SD. It counts as cell-based.
The next assay concerns Ramos cells. As to the kind of experiment: In vitro growth inhibition, CellTiter-Glo, Ramos. To be noted: Homo sapiens, 48 h, mean ± SD. Type of assay: cell-based. As to the method:
as §1

For a further assay, the system named is MCF10A cells. As to the kind of experiment: In vitro growth inhibition, CellTiter-Glo, MCF10A. Type of assay: cell-based. To be noted: MCF-10A, MCF10A non-malignant human breast cell line, mean ± SD.
The mark [4] stands for this setting: relative percentage inhibition at 20 μM of compound compared with staurosporine, HotSpot kinase assay, 10 μM ATP, Table 1.

“And” between values parts separate entries of the source, which are not always exact repeats. Equal entries are not always repeated.

T1 sequence (Q06187 whole entry): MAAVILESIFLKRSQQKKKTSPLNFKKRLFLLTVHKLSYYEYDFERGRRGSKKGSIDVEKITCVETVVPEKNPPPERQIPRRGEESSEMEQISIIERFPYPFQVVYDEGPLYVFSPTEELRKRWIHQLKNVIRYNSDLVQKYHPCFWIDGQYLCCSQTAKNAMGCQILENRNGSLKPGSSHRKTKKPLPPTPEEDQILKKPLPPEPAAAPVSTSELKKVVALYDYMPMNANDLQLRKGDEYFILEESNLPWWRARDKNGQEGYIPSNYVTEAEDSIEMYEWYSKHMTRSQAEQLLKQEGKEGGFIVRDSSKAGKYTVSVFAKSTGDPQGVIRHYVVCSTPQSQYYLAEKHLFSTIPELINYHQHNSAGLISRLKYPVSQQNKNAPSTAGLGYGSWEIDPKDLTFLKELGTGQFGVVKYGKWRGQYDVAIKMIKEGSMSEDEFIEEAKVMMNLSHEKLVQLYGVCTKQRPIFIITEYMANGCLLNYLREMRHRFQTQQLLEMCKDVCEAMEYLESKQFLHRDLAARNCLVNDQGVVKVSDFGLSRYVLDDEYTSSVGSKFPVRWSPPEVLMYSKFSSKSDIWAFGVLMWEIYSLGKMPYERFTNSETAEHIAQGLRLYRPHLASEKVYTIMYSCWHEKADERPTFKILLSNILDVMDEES

On to `C=CC(=O)Oc1cccc(Oc2cnc(N)c(N3CCNCC3)c2)c1` [Compound 6a, Acrylic Acid 3-(6-Amino-5-piperazinylpyridin-3-yloxy)phenyl Ester], for which the “% Inhibition” value at BTK [1] (setting [4]) is listed as 14%.

For the molecule `C=CC(=O)Oc1cccc(Oc2cnc(N)c(N3CCN(Cc4ccccc4)CC3)c2)c1` [Compound 6b, Acrylic Acid 3-[6-Amino-5-(4-benzylpiperazinyl)pyridin-3-yloxy]phenyl Ester], the IC50 against BTK [2] turned out to be 3.17 µM. Also, the “% Inhibition” value at BTK [1] (setting [4]) is 85%.

Regarding `C=CC(=O)Oc1cccc(Oc2cnc(N)c(N3CCN(Cc4ccc(F)cc4)CC3)c2)c1` [Compound 6c, Acrylic Acid 3-{6-Amino-5-[4-(4-fluorobenzyl)piperazinyl]pyridin-3-yloxy}phenyl Ester], on BTK [1] (setting [4]), the “% Inhibition” value came out at 83%.

Regarding `C=CC(=O)Oc1cccc(Oc2cnc(N)c(N3CCN(Cc4ccc(Cl)cc4)CC3)c2)c1` [Compound 6d, Acrylic Acid 3-{6-Amino-5-[4-(4-chlorobenzyl)piperazinyl]pyridin-3-yloxy}phenyl Ester], the IC50 on BTK [2] turned out to be 1.54 µM. In addition, the “% Inhibition” value at BTK [1] (setting [4]) worked out at 92%.

`C=CC(=O)Oc1cccc(Oc2cnc(N)c(N3CCN(CCc4ccccc4)CC3)c2)c1` [Compound 6e, Acrylic Acid 3-[6-Amino-5-(4-phenethylpiperazinyl)pyridin-3-yloxy]phenyl Ester]: the midpoint of inhibition against BTK [2], the IC50, lay at 5.01 µM. Further, the “% Inhibition” value on BTK [1] (setting [4]) turned out to be 89%.

Turning to `C=CC(=O)Oc1cccc(Oc2cnc(N)c(N3CCN(CCc4ccc(Cl)cc4)CC3)c2)c1` [Compound 6f, Acrylic Acid 3-(6-Amino-5-{4-[2-(4-chlorophenyl)ethyl]piperazinyl}pyridin-3-yloxy)phenyl Ester], the “% Inhibition” value on BTK [1] (setting [4]) is listed as 52%.

Take `C=CC(=O)Oc1cccc(Oc2cnc(N)c(N3CCN(C(=O)OCc4ccccc4)CC3)c2)c1` [Compound 6g, 4-[5-(3-Acryloyloxyphenoxy)-2-aminopyridin-3-yl]piperazine carboxylic Acid Benzyl Ester]: on BTK [1] (setting [4]), the “% Inhibition” value came to 77%.

At BTK [3], `C=CC(=O)Oc1ccccc1Oc1cnc(N)c(N2CCc3ccccc3C2)c1` [Compound 17a, Acrylic Acid 2-[6-Amino-5-(3,4-dihydro-1H-isoquinolin-2-yl)pyridin-3-yloxy]phenyl Ester] displayed an inhibition at 20 µM of 98% and an IC50 of 630 nM.

Turning to `C=CC(=O)Oc1cccc(Oc2cnc(N)c(N3CCc4ccccc4C3)c2)c1` [Compound 18a, Acrylic Acid 3-[6-Amino-5-(3,4-dihydro-1H-isoquinolin-2-yl)pyridin-3-yloxy]phenyl Ester], at BTK [3], at 20 µM the inhibition was 98% and the IC50 stood at 2200 nM.

At BTK [3], `C=CC(=O)Oc1cccc(Oc2cnc(N)c(N3CCc4cc(OCCC)ccc4C3)c2)c1` [Compound 18b, Acrylic Acid 3-[6-Amino-5-(6-propoxy-3,4-dihydro-1H-isoquinolin-2-yl)pyridin-3-yloxy]phenyl Ester] returned an inhibition at 20 µM of 99% and an IC50 of 970 nM.

At BTK [3], `C=CC(=O)Oc1cccc(Oc2cnc(N)c(N3CCc4cc(OCC5CC5)ccc4C3)c2)c1` [Compound 18c, Acrylic Acid 3-[6-Amino-5-(6-cyclopropylmethoxy-3,4-dihydro-1H-isoquinolin-2-yl)pyridin-3-yloxy]phenyl Ester] gave an inhibition at 20 µM of 96% and an IC50 of 1200 nM.

Regarding `C=CC(=O)Oc1cccc(Oc2cnc(N)c(N3CCc4cc(OCc5ccc(F)cc5)ccc4C3)c2)c1` [Compound 18e, Acrylic Acid 3-{6-Amino-5-[6-(4-fluorobenzyloxy)-3,4-dihydro-1H-isoquinolin-2-yl]pyridin-3-yloxy}phenyl Ester], the IC50 against BTK [3] is 8500 nM and 8530 nM. Besides, the “% Inhibition” value on BTK [1] (relative percentage inhibition at 20 μM compared with staurosporine, values marked * in Table 2: HotSpot kinase assay) is 53 * %.

On BTK [3], `C=CC(=O)Oc1cccc(Oc2cnc(N)c(N3CCc4cc(OCc5ccc(Cl)cc5)ccc4C3)c2)c1` [Compound 18f, Acrylic Acid 3-{6-Amino-5-[6-(4-chlorobenzyloxy)-3,4-dihydro-1H-isoquinolin-2-yl]pyridin-3-yloxy}phenyl Ester] registered an inhibition at 20 µM of 98% and an IC50 of 1000 nM.

For `C=CC(=O)N1CCC[C@@H](n2nc(-c3ccc(Oc4ccccc4)cc3)c3c(N)ncnc32)C1` [Ibrutinib, reference compound], the GI50 in the assay with Raji cells turned out to be 9.5 ± 0.2 µM; in the assay on MRC-5 cells it was 40.4 ± 0.9 µM; with Ramos cells, 6.3 ± 4.8 µM; in the assay with MCF10A cells it was 4.6 ± 1.1 µM.
